Entries after “also recorded” stand apart in the source; their conditions may differ.

Data set [1] relates to KSDH1. Put plainly: Amplex UltraRed assay (H2O2 detection by fluorescence). The class given is biochemical, Pimelobacter simplex. To be noted: 500 μM final PRG, CRT; 4.56 μM KSDH1; normalized (analytes without enzyme subtracted). As for the experimental part:
FIGS. 6A-6B are schematics and graphs detailing the Amplex® UltraRed Reagent assay in which fluorescence is analyte limited, not enzyme limited. FIG. 6A is a schematic showing the Amplex® UltraRed mechanism for oxidase enzymes. Hormone is oxidized into product and H2O2 with presence of […] and O2. Horseradish peroxidase (HRP) then oxidizes Amplex® UltraRed in the presence of H2O2 into resorufin, which is fluorescent.
In Vitro Enzyme Characterization: Amplex® UltraRed assays were performed per instruction of the manufacturer (Thermo Fisher Scientific, Cambridge, Mass.). Final concentrations of Amplex® UltraRed, 500 uM, and HRP, 1 U/mL, in a total volume of 20 μL were used. Hormone and KSDH1 and KSDH2 concentrations varied with experiment. All measurements of fluorescence were done in a 384 well flat bottom black polystyrene microplate (Corning Inc.™, Corning, N.Y.) and read in an Infinite M200 Pro™ (TECAN Group Ltd.™, Medford, Mass.) spectrophotometer at room temperature with the excitation set to 490 nm and emission at 585 nm. Readings were done over 1 hour with each well read every 30 seconds.
(§1) The FAD-binding (KSDH1) enzyme was used to develop and optimize a hormone electrochemical biosensor. […] KSDH1 was also assessed using a DCPIP Assay to test whether it is a dehydrogenase.

Data set [2] is described as follows: Cyclic voltammetry, electroactivity on DS110 carbon SPE. The class given is physicochemical.
The subject of data set [3] is KSDH1. Put plainly: 2,6-Dichlorophenolindophenol (DCPIP) dehydrogenase functional assay. The class given is biochemical, Pimelobacter simplex. To be noted: for Binding affinity, kinetics derived from velocity by hormone concentration experiment: FIG. 9C-9D. As for the experimental part: A 2,6-Dichlorophenolindophenol functional assay was used to test whether KSDH1 is a dehydrogenase (FIG. 9A).
as §1

Data set [4] relates to Pimelobacter simplex. As to the kind of experiment: RNA-Seq of Pimelobacter simplex in the presence of hormone. The data set is classed as cell-based. Conditions: P. simplex grown in the presence of progesterone. The protocol:
FIG. 3 is a series of graphs showing that RNA-Seq identified the steroid degrading genome cluster in Pimelobacter simplex.
Strain RNA Extraction: Cells were grown in 5 mL M18 at a starting OD600 of 0.005 with 21.6 μM hormone in 14 mL polypropylene round-bottom tubes (Corning Inc.™, Corning, N.Y.) in singlet. The cells were incubated at 30° C. with continuous orbital shaking at 150 rpm until the end of lag-phase (3 hours) and mid-log phase (7.5 hours) from the start of inoculation. Controls were grown in the same conditions without hormone. […] RNA samples were subsequently quantified using Qubit RNA HS Assay Kit™ (Thermo Fisher Scientific Inc.™, Cambridge, Mass.) and analyzed using a RNA 6000 Pico Kit™ (Agilent Technologies Inc.™, Santa Clara, Calif.) in a 2100 Bioanalyzer™ (Agilent Technologies Inc.™, Santa Clara, Calif.). […]
RNA-Seq Library Preparation: After RNA samples have been quantified and analyzed they were DNase treated using TURBO™ DNase 2 U/μL (Thermo Fisher Scientific Inc™ Cambridge, Mass.) and cleaned using Agencourt RNAClean™ XP SPRI beads (Beckman Coulter, Inc.™, Brea, Calif.). […] Whole transcriptome RNA sequencing was performed by a NextSeq 500™ (Illumina Inc.™, San Diego, Calif.) at high output (400 M reads) with 75 bp paired end sequencing read length. The data was then analyzed in-house through a proprietary lab computational pipeline.

Data set [5] can be described thus: KSDH1 stability (storage, immobilizing polymer) on biosensor. The data set is classed as physicochemical. An excerpt:
FIG. 27. KSDH1 precipitation in the presence of chitosan, an immobilizing polymer, is evident.
FIG. 30A-B. Glutaraldehyde immobilization decreases signal (FIG. 30A).

Setting [6] is: DS110, DMSO as solvent (FIG. 16A).
The mark [7] stands for this setting: DS110, EtOH as solvent (FIG. 16B).

In the case of `CC(=O)[C@H]1CC[C@H]2[C@@H]3CCC4=CC(=O)CC[C@]4(C)[C@H]3CC[C@]12C` [Progesterone, progesterone], the “KSDH1 response (fluorescence signal) to analyte” value in data set [1] is “increase of fluorescence; also recorded: responsive”. Also, the “Electroactivity by cyclic voltammetry” value in data set [2] (setting [6]) and in data set [2] (setting [7]) was “not electroactive” in each case. For the same molecule, in data set [3], the “Binding affinity, kinetics derived from velocity by hormone concentration experiment” value is on record as “strong”. The “KSDH1 sensitivity in sterol screen (DCPIP reduction, absorbance at OD600 nm)” value in data set [3] (sterol screen, FIG. 9B) is given as “DCPIP was reduced; also recorded: high sensitivity”. In data set [4], the “Expression of sterol responsive enzymes KSDH1 and KSDH2 (SRGI cluster)” value was “highly expressed”.

Regarding `C[C@]12CCC(=O)C=C1CC[C@@H]1[C@@H]2[C@@H](O)C[C@@]2(C)[C@H]1CC[C@]2(O)C(=O)CO` [Cortisol, hydrocortisone], the “KSDH1 response (fluorescence signal) to analyte” value in data set [1] is given as “increase of fluorescence; also recorded: responsive”. The “Electroactivity by cyclic voltammetry” value in data set [2] (setting [6]) and in data set [2] (setting [7]) was “not electroactive” in each case. In addition, in data set [3], the “Binding affinity, kinetics derived from velocity by hormone concentration experiment” value is listed as “strong”.

B1: 3-ketosteroid-Δ1-dehydrogenase enzyme 1 (protein)
chain: MDWAEEYDVLVAGSGAGGMAGTYTAAREGLSVCLVEAGDKFGGTTAYSGGGGAWFPANPVLLRAGTDDTIEDALEYYRAVVGDRTPADLQETYVRGGAGLVAYLEEDDHFSFESYPWPDYFGDAPKARRDGQRHIIPTPLPVPSAPELREVVRGPLDNDRLGTPQPDDLFIGGRALVARFLTALATYPHATLVRETALAELVVEDGVVVGAIVETDGVRRAIRARRGVLLAAGGFEANDELRQKYGVPGVARDTMGPPTNVGAAHQAAIAVGADTDLMGEAWWSPGLTHPDGRSAFALWFTGGIFVDGAGRRFVNESAPYDRLGRAVIDHLTEGGVTPRYWMVYDHKEGSIPPVRATNVSMVDEEQYVAAGLWHTADTLPELAALIGVPADALVATVARFNELVADGYDADFGRGGEAYDRFFSGGEPPLVSIDEGPFHAAAFGISDLGTKGGLRTDTSARVLTADGTPIGGLYAAGNTMAAPSGTTYPGGGNPIGTSMLFSHLAVRHMGTEDARGSHHHHHH
modifications: 6xHis tag
Turning to B1, the “Behaviour in the presence of chitosan, an immobilizing polymer” value in data set [5] (FIG. 27) was “precipitation”. In addition, the “Current output after storage” value in data set [5] (storage at 4 C for 1 week, two electrode configuration, DS110, +0.4V) is on record as “no change in current output”.

Values taken from patent publication US11801000B2, “Hormone electrochemical biosensor” (Trustees of Boston University, priority 2021, dated 2023).
